Test results from ChEMBL document CHEMBL3259640 (J Med Chem, 2014).
Values after ≈ are worked out from the molar mass of the structure shown.

How the values were obtained:
[1] = Solubility of the compound in phosphate buffered saline containing 1% DMSO at pH 7.4 after 2 hrs by HPLC analysis; type: physicochemical
[2] = system: MDA-MB-468; assay: Antiproliferative activity against human MDA-MB-468 cells assessed as cell viability after 96 hrs by CellTiter96 assay; type: functional, cell-based; settings: MDA-MB-468, 96 h
[3] = system: K562; assay: Antiproliferative activity against human K562 cells assessed as cell viability after 96 hrs by CellTiter96 assay; type: functional, cell-based; settings: K562, 96 h
[4] = system: MDA-MB-231; assay: Antiproliferative activity against human MDA-MB-231 cells assessed as cell viability after 96 hrs by CellTiter96 assay; type: functional, cell-based; settings: MDA-MB-231, 96 h
[5] = system: HeLa; assay: Antiproliferative activity against human HeLa cells assessed as cell viability after 96 hrs by CellTiter96 assay; type: functional, cell-based

solubility kinetic at 2 h [1] [µM] | IC50 [2] [nM] | IC50 [3] [nM] | IC50 [4] [nM] | IC50 [5] [nM] | Structure (SMILES)
3.33 (≈ 1.08 µg/mL) |  |  |  |  | Cc1cc(C)c(-c2csc(NC(=O)c3ccncc3)n2)c(C)c1
 | 128 | 45.7 | 68 | 106 | Cc1cc(Oc2ccc3c(c2)OCO3)cc(C)c1-c1csc(NC(=O)c2ccncc2)n1
 | 2200 | 3200 | 3200 | 3600 | Cc1cc(C)c(-c2csc(NC(=O)c3ccccc3)n2)c(C)c1
 | 37 | 34.9 | 32 | 48.6 | COc1ccc(Oc2cc(C)c(-c3csc(NC(=O)c4ccncc4)n3)c(C)c2)cc1
 | 300 | 380 | 310 | 620 | Cc1cc(C)c(-c2csc(NC(=O)Cc3ccncc3)n2)c(C)c1
